# Results: patent US20060088545A1, “Use of inhibitors of the protease of the human immunodeficiency virus (hiv) to block cell migration and/or invasion, tissue infiltration and oedema for the therary of diseases associated therewith” (priority 2001, published 2006)
# “Also recorded” adds a separate entry of the source. Where two headings read alike, the source gives them in different places.
# Columns and labels:
# [1] = test system: primary macrovascular (umbilical vein) endothelial cells (HUVEC); test: Proliferation assay of HUVEC, basal or bFGF-induced; format: cell-based, human; settings: for basal or bFGF-induced proliferation (number of cells): 0.1, 1 or 10 μM, 5 days, bFGF 10 ng/ml
# Procedure: Human endothelial cells from the umbilical vein (HUVEC, Blo-Whittaker, Verviers, Belgium) were plated in triplicate (1.5×10^4 cells/well) in plates of 12 wells previously covered with gelatine. The next day the cells were incubated for 4 hours in a medium without serum and cultivated in RPMI 1640 medium (Life Technologies, Eragny, France) with the addition of 10% of foetal bovine serum (FBS) together with bFGF in PBS buffer (10 ng/ml) or PBS buffer alone.
# (§1) The concentrations of HIV-PI used were the same as those present in plasma of treated patients (Deeks et al., 1997).
# [2] = test system: primary macrovascular (umbilical vein) endothelial cells (HUVEC); test: Boyden chamber invasion assay of HUVEC in response to bFGF; format: cell-based, human; settings: 0.1, 1 or 10 μM; bFGF 50 ng/ml; 6 hours
# Procedure: Both assays were performed on endothelial cells.
# Both assays were performed by the Boyden chamber separated in two compartments by polycarbonate filters with 12 μm pores (Nucleoprobe, Cabin John, Md.), coated with collagen IV (Collaborative Biomedical Products) for migration, or with collagen IV and Matrigel together for invasion, as described previously (Barillari et al., 1999b). […] After 5 hours (migration) or 6 hours (Invasion) of incubation, the non-migrated cells present on the top surface of the filters were mechanically removed, while the migrated cells on the bottom surface were fixed in methanol and stained with toluidine blue (Sigma Chemical Co., St. Louis, Mo.). The cells present in 5-10 microscopic fields of the filters, chosen at random, were counted as described previously (Barillari et al., 1999b).
# as §1
# [3] = test system: smooth muscle cells; test: Cell growth assay of smooth muscle cells in response to bFGF; format: cell-based, human
# Description: Assays have been essentially performed as described in key to FIGS. 1 and 3. […] Data of duplicate experiments (mean) are shown.
# [4] = test system: angiogenesis induced by bFGF or VEGF in the chorioallantoic membrane; settings: for VEGF-induced angiogenesis, % of the untreated VEGF control / bFGF-induced angiogenesis, % of the untreated bFGF control / Average vessel (number/mm^2 ± SD): HIV-PI 10 μM; for basal CAM vascularization: drug administered alone; for toxicity in CAM: in vivo
# Procedure: CAM assays were performed with 1 mm^3 sterilized gelatin sponges (Gelfoam; Upjohn Co, Kalamazoo, Mich.) adsorbed with bFGF or VEGF (1 μg or 100 ng, respectively) in 5 μl of PBS, and with buffer, HIV-PI (10 μM) or taxol (250 nM) (Bristol-Myers Squibb Co., Princeton, N.J.) as described (Ribatti et al, Int. J. Dev. Biol., 1996). CAM were examined daily until day 12 under an Olympus SZX9 stereomicroscope. Images (1024×1024 pixels) were captured at a distance of 2 mm from the edge of the sponge using a cooled digital CCD Hamamatsu ORCA camera (Hamamatsu Photonics Italia, Arese, Italy). Vessel number was quantified with the ImageProPlus 4.0 imaging software (Media Cybernetics, Silver Spring, Md.) in 3 randomly selected areas per egg ([…]).
# Results are expressed as the average number of vessels/mm^2±SD from the indicated number of CAM per experimental condition.
# [5] = test system: KS-like lesions induced by KS cells (KS12); test: Regression of KS-like lesions induced by KS cells in nude mice, no drug pre-treatment; format: in vivo; settings: treatment started on the day of KS cell inoculation, 5 days
# Procedure: Indinavir and saquinavir can also promote KS regression in the absence of any drug pre-treatment. […] Treatment was then continued for 5 days, until sacrifice. The mean size (cm^2) of the lesions present at the injection site evaluated by daily caliper measurement and calculated as the product of the two major lesion diameters is shown.
# To determine whether HIV-PI can also promote KS regression in the absence of any drug pre-treatment, experiments were also performed by treating mice with HIV-PI at the time of KS cell inoculation.
# [6] = test system: hepato-carcinoma (SK-Hep-1) cells; test: Tumour lesions induced by SK-Hep-1 cells in nude mice; format: in vivo; settings: 5×10^6 cells/site; daily treatment
# Procedure: (§2) Twenty-four hours before cell injection, the mice have received sub-lethal irradiation (400 G) in order to increase the tumour up-take. The treatment with HIV-PI or saline solution continued until sacrifice. The size of the lesions present at the injection site was evaluated daily by caliper measurement. External lesion area was then calculated as the product of the two major lesion diameters. The mean size (cm^2) of the lesions present at the injection site is shown.
# (§3) To determine whether HIV-PI could inhibit the growth of malignant solid and lymphoid tumours, nude mice were inoculated with hepato-carcinoma cells (SK-Hep-1), lung carcinoma cells (A549), breast adeno-carcinoma cells (MDA-MB-468), myelo-monocytic leukaemia cells (U937), and T lymhocytic leukaemia cells (Jurkat).
# [7] = test system: breast carcinoma (MDA-MB468) cells; test: Tumour lesions induced by MDA-MB468 cells in nude mice; format: in vivo; settings: 5×10^6 cells/site; daily treatment
# Procedure: as §2, with “FIG. 28. […]” for “Twenty-four hours before cell injection, the mice have received sub-lethal irradiation (400 G) in order to increase the tumour up-take.”
# as §3
# [8] = test system: bFGF; test: bFGF production by KS cells (ELISA); format: cell-based, human; settings: 0.1, 1 and 10 μM; 5 days + 24 hours
# Procedure: (§4) After 24 hours of incubation, the supernatants of the cultures were tested by ELISA (R & D Systems, Minneapolis, Minn., USA) to determine the quantity of IL-6 present in the medium. The quantity of IL-6 is expressed in pg/ml of supernatant. The same tests were carried out for bFGF, VEGF, IL-1α and IL-1β by means of commercial ELISA kits.
# (§5) KS cells secrete cytokines with an inflammatory, oedemigenic, angiogenic and proliferative activity with autocrine and paracrine effects (Ensoli and Stürzl, 1998). These factors mediate all the processes required for KS-like lesions formation (angiogenesis, cellular proliferation and invasion, inflammatory Infiltration, oedema) and vascular permeability and oedema induced by KS cells in nude mice. […] The quantity of bFGF, VEGF, IL-1 and IL-6 was dosed with immuno-enzymatic trials in the supernatants of the KS cells after 24 hours of culture in the absence of serum and in the continuous presence of the two HIV-PI (ELISA). […] Furthermore IL-6 plays a key role in the multicentric Cstleman's diseases and in the growth of lymphomas (Tosato et al., 1993; Peterson and Frizzera, 1993; Asou et al., 1998; Ramsay et al., 1994), another type of tumour whose incidence is reduced in patients treated with HIV-PI (International Collaboration on HIV and Cancer 2000).
# [9] = test system: IL-1α; test: IL-1α production by KS cells (ELISA); format: cell-based, human; settings: 0.1, 1 and 10 μM, 5 days + 24 hours
# Procedure: as §4, §5
# [10] = test system: IL-6; test: IL-6 production by KS cells (ELISA); format: cell-based, human; settings: 0.1, 1 and 10 μM, 5 days + 24 hours
# Procedure: as §4, §5
Compound,survival of macrovascular endothelial cells [1],basal or bFGF-induced proliferation (number of cells) [1],invasion induced by bFGF [2],proliferation in response to bFGF [3],"VEGF-induced angiogenesis, % of the untreated VEGF control [4]","bFGF-induced angiogenesis, % of the untreated bFGF control [4]",Average vessel (number/mm^2 ± SD) ([4]; VEGF 100 ng),"Average vessel (number/mm^2 ± SD) ([4]; bFGF 1 μg, taxol 250 nM)",basal CAM vascularization [4],toxicity in CAM [4],regression of KS-like lesions (lesion size) [5],development of tumour lesions (lesion size) [6],development of tumour lesions (lesion size) [7],production of bFGF by KS cells [8],production of IL-1α by KS cells [9],production of IL-1α by KS cells ([9]; listed as indinavir),production of IL-6 by KS cells [10],production of IL-6 by KS cells ([10]; listed as indinavir)
"CC(C)(C)NC(=O)[C@@H]1CN(Cc2cccnc2)CCN1C[C@@H](O)C[C@@H](Cc1ccccc1)C(=O)N[C@H]1c2ccccc2C[C@H]1O [Indinavir, indinavir]",no effect,no effect,block,do not interfere,36%,42%,7.70 ± 2.52 number/mm^2,8.22 ± 2.54 number/mm^2,did not affect,not associated with toxicity,promote the regression,inhibit,inhibit,reduced,inhibited,reduced,inhibited,reduced
"CC(C)(C)NC(=O)[C@@H]1C[C@@H]2CCCC[C@@H]2CN1C[C@@H](O)[C@H](Cc1ccccc1)NC(=O)[C@H](CC(N)=O)NC(=O)c1ccc2ccccc2n1 [Saquinavir, saquinavir]",no effect,no effect,block,do not interfere,11%,19%,5.39 ± 0.67 number/mm^2,6.08 ± 1.84 number/mm^2,did not affect,not associated with toxicity,promote the regression,inhibit,inhibit,reduced,reduced; also recorded: inhibited,–,reduced; also recorded: inhibited,–
